Measurements taken from patent US20110300147A9, “Inhibiting tumor cell invasion, metastasis and angiogenesis” (The Scripps Research institute, priority 2005, published 2011).

What was measured:
[1] = cytotoxicity of AEPI-1 in 293 cells expressing legumain; assay type: cell-based; settings: human, 293 cells recombinantly expressing legumain; 293 cells that recombinantly expressed legumain
Method: To further evaluate the role of asparaginyl endopeptidases in angiogenesis, four asparaginyl endopeptidases inhibitors (AEPI) were tested using recombinant legumain in an amidolytic activity assay with fluorescent substrate. FIG. 4A graphically illustrates the effects that AEPI-1 to AEPI-4 (also referred to as legumain inhibitors LI-1 to LI-4) have on asparaginyl endopeptidase activity. […] No apparent cytotoxicity was observed until almost 100 μM AEPI-1 was used in these assays (FIG. 4B).

HUVEC = assay: matrigel endothelial cell tube formation assay; assay type: cell-based, human
Method: The effect of AEPI-1 on endothelial cell function was assessed in vitro in a matrigel endothelial cell tube formation assay. […] In contrast, addition of recombinant legumain dramatically promoted and accelerated tube formation (FIG. 4D). HUVEC tube formation was observed as early as 5 hours after assay initiation when legumain was added. Under normal conditions 24 hours were required for the vascular tubes to form.

[2] = system: angiogenesis in Matrigel plugs; assay: Matrigel plug angiogenesis assay in vivo; parameters: species or system Balb C nu/nu mice
Method: The effect of AEPI-1 on angiogenesis was further investigated in vivo using a Matrigel plug assay. Matrigel containing FGF-2 was injected subcutaneously into Balb C nu/nu mice.
The effect of AEPI-1 on angiogenesis induced by cancer cells was then investigated by including human breast cancer cells (MDA-MB-231 cells) in the Matrigel plugs. The cancer cells produced a spectrum of angiogenic factors and induced robust angiogenic vessel growth (FIG. 5C).

MDA-MB-231 cells = assay: MDA-MB-231 human mammary carcinoma model; assay type: in vivo, Balb C nu/nu mice; settings: two weeks after tumor cell implantation
Method: The effect of AEPI-1 on tumor growth and invasion was then evaluated in a human mammary carcinoma model established in Balb C nu/nu mice. The MDA-MB-231 cells grew aggressively in vivo and formed a tumor that was similar to a human infiltrating ductal carcinoma with apparent glandular differentiation. The tumor locally invaded surrounding tissues and skeletal muscles.

4T1 breast cells = assay: 4T1 experimental lung metastasis model; assay type: in vivo, BALB/c mice; settings: AEPI-1 100 μg i.p. daily for two weeks
Method: A lung metastasis model was induced experimentally by injecting a cell suspension of 4T1 breast cells (1×10^5) suspended in 0.1 ml serum free medium into the tail vein of six-week-old female BALB/c mice. The mice were treated with 100-μl intraperitoneal injections of either PBS alone (control group) or LEG-3 (100 μg/100 μl) daily for two weeks.
4T1 Lung Experimental Metastasis was generated by suspending 4T1 cells (1×10^5) in 0.1 ml serum-free medium and injecting these cells into the tail vein of mice under the anesthesia. Treatment involved 100 μl intraperitoneal injection of either saline alone (control group) or AEPI-1 (treatment group). The AEPI-1 treatment group was given 100 μg AEPI-1 in saline (100 ul) by intraperitoneal injection daily for two weeks. All mice were euthanized by CO2 and lungs were removed, weighted and fixed in the Bouin's solution. Lung metastases were counted by anatomy microscope.

4T1 mammary carcinoma = assay: primary 4T1 tumor and spontaneous lung metastasis model; assay type: in vivo, BALB/c mice; settings: AEPI-1 50 μg i.p. every two days for two weeks
Method: Primary 4T1 tumors are generated by subcutaneous injection of 5×10^5 4T1 cells in the right flank of six-week-old BALB/c mice. Two different groups of four animals were treated between days 9 and 27 after tumor induction. The treatments were 100-μl […] injections of PBS alone (control group) or LEG-3 100 μg/100 μl in PBS by intraperitoneal injection every two days for two weeks. Tumor volumes of treated animals were measured every two-day starting on day 9 by microcaliper measurements (volume=width×length×width/2). As soon as the tumor volume reached 1400 mm^3 in the control groups (on day 30th), euthanasia was performed and lungs were removed and fixed in the Bouin's solution. Lung metastases were counted by anatomy microscope. Statistical significance between treatment groups was determined by two-tailed Student's t tests using Microsoft EXCEL software.
Tumor induction was performed by subcutaneous injection of 5×10^5 4T1 cells in the right flank mammary fat pat of six-week-old BALB/c mice. […] Tumor volumes of treated animals were measured everyday starting on day 6 by micro-caliper measurements (volume=width×length×width/2). […] Lung metastases were counted by anatomy microscope. The statistical significance between treatment and control groups was determined by two-tailed Student's t tests using Microsoft EXCEL software.

breast cancer cells = assay: hypoxia induced breast cancer cell migration in vitro; assay type: cell-based
legumain = target: T1, legumain (Mus musculus, UniProt O89017); assay: legumain activity in tissues after systemic administration of AEPI-1; assay type: in vivo, mice
T1 construct: from tissue
T1 sequence (O89017 18-325): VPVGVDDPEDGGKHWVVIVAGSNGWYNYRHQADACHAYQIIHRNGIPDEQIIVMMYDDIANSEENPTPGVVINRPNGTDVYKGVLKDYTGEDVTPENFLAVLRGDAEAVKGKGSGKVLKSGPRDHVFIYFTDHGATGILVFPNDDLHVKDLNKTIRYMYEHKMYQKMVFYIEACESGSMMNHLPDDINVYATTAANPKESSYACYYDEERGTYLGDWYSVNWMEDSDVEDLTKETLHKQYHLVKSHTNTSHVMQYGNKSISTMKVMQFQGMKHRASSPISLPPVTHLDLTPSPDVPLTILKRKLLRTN

[3] = target: legumain cleavage of caspase 9 (Homo sapiens, UniProt Q99538); assay: caspase 9 activity after legumain cleavage; assay type: biochemical
Description: Legumain catalytically inactivates caspase 9. In addition to suppression of cathepsin B, legumain efficiently inactivates caspase 9 and depletes the cell of pro-caspase 9 (FIG. 20A). […] Loss of pro-caspase 9 led to reduced caspase 3 activation in a reconstituted apoptosome system (FIG. 20D), which was further confirmed by detection of reduced caspase 3 activity (FIG. 20E). These observations indicate that asparaginyl endopeptidases play a critical role in cell survival and tumorigenesis.

Sequence of legumain cleavage of caspase 9 (Q99538 18-323, species assumed): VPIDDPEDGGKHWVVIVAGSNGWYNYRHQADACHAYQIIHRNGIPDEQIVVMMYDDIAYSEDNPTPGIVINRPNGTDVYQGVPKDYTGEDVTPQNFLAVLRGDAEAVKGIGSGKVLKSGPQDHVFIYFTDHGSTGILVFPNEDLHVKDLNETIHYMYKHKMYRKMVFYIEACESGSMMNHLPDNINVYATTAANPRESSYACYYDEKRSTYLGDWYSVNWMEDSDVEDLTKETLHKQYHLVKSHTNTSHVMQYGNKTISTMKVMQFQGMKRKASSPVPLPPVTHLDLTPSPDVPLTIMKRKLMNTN

CCOC(=O)C1OC1C(=O)N(CC(N)=O)NC(=O)[C@H](C)NC(=O)[C@H](C)NC(=O)OCc1ccccc1 (stereo partly drawn) [AEPI-1, Cbz-Ala-Ala-AzaAsn-(S,S)-EPCOOEt]
CC50 [1]: 430 µM
concentration at which inhibition of tube formation was apparent (HUVEC; HUVEC, matrigel): 100 nM
concentration at which tube formation was completely inhibited (HUVEC; HUVEC, matrigel): 600 nM
hypoxia induced tube formation (HUVEC; hypoxic conditions): inhibited
HUVEC tube formation (HUVEC; matrigel, normal conditions): suppressed HUVEC tube formation in a dose dependent manner
cancer cell-induced angiogenesis in the plug ([2]; MDA-MB-231 cells in the Matrigel plugs): essentially completely inhibited
FGF-2 induced vessel formation in the plug ([2]; Matrigel containing FGF-2 s.c., gross appearance, hemoglobin content, histology): significantly inhibited
tumor differentiation into a more invasive form (MDA-MB-231 cells): blocked
tumor growth (MDA-MB-231 cells): completely suppressed tumor growth
experimental lung metastasis (4T1 breast cells): inhibited experimental lung metastasis
growth of 4T1 mammary carcinoma (4T1 mammary carcinoma): inhibits the growth
spontaneous lung metastasis (4T1 mammary carcinoma): inhibited spontaneous lung metastasis
hypoxia induced breast cancer cell migration (breast cancer cells): inhibited
cell permeability (legumain; inferred from tumor vs kidney legumain activity): substantially impermeable to cells
legumain activity in 4T1 tumors (legumain; systemic administration): inhibited legumain activity in 4T1 tumors
legumain activity in kidney (legumain; systemic administration): does not affect
loss of caspase 9 activity caused by legumain cleavage [3]: inhibited
